# Reference: US20210267872A1, “Delivery Of Cosmetic Agents, Compositions And Use Thereof” (ELC Management LLC, priority 2020, published 2021)
# How the values were obtained:
# MatTek 300 skin = assay: Skin penetration study (Franz Cell) using MatTek skin; assay type: in vitro ADME; settings: for enhancement of penetration of AA2G over control: p value greater than 0.05
# Procedure: In a 6-well plate, MatTek 300 skin (a skin modeling constructed by live cells, obtained from MatTek) was placed in well with 2.00 mL of incubation medium (also provide by MatTek). To the top of the skin, 400 ul of the sample was loaded. The skin was then incubated at 37° C. At 3 hours and 6 hours, the incubation medium was collected, and another 2.00 mL of medium was added into the well. The skin was then incubated until 24 hours. Finally, the medium was collected at 24 hours' time point. The collected mediums were filtered through a 0.45 um PTFE syringe filter into HPLC vials. The samples were then submitted to the UPLC study.
# Waters ACQUITY H UPLC was used to analyze the collected samples from the penetration study (Franz Cell study).
# Skin PAMPA study = assay type: in vitro ADME
# Procedure: In vitro delivery of active ingredients in a formulation was evaluated using a skin PAMPA study. Active ingredients and pulverized thin fibers were added to the formulation and tested for permeation using PAMPA SC membrane for polar compounds. The following samples were prepared. Formulations are provided in Table 3 in percentages. • Formula 1 as shown in Table 3. • Formula 2: Formula 1 and 1% of microcrystalline cellulose (9 μm). • Formula 3: Formula 1 and the maximum amount of 1% dispersion (cellulose acetate fibers in water). • Formula 4: Formula 1 and 1% of microcrystalline cellulose (9 μm) and the maximum amount of 1% dispersion (cellulose acetate fibers in water).
Compound,"enhancement of penetration of AA2G over control (MatTek 300 skin; six hours, formula containing cellulose acetate chopped fibers vs control without fiber) [%]","enhancement of penetration of AA2G over control (MatTek 300 skin; three hours, formula containing cellulose acetate chopped fibers vs control without fiber) [%]","enhancement of penetration of AA2G over control (difference) (MatTek 300 skin; twenty-four hours, formula containing cellulose acetate chopped fibers vs control without fiber)","delivery/penetration of AA2G into the skin in the presence of cellulose acetate chopped fibers (MatTek 300 skin; vs formulation without fiber, initial 6 hours after loading)","permeated amount of AA2G, FIG. 2B (Skin PAMPA study; span over all formulas shown) [μg/cm2]",percentage % penetration of caffeine compared with AA2G (MatTek 300 skin),penetration of caffeine in the presence of cellulose acetate chopped fibers (summary) (MatTek 300 skin; PAMPA),"enhancement of penetration of caffeine by addition of chopped fiber (MatTek 300 skin; human, 6 h) [%]","permeation of caffeine in the presence of chopped fibers compared to the control, FIG. 4B (Skin PAMPA study; composition comprising chopped fibers)","permeating amount of caffeine, FIG. 4A (Skin PAMPA study; six hours, cellulose acetate nanofiber)"
"O=C1O[C@H]([C@@H](O)CO)C(O)=C1O[C@H]1O[C@H](CO)[C@@H](O)[C@H](O)[C@H]1O [AA2G, ascorbic acid 2-glucoside]",30,33,less than 10%,enhanced,0 to 300,–,–,–,–,–
Cn1c(=O)c2c(ncn2C)n(C)c1=O [caffeine],–,–,–,–,–,greater than that of AA2G,slightly enhanced,< 10,doubling,slightly increased
